Where a SMILES comes first, the peptide text is derived from it. Bridges are numbered along the chain shown (N, C = ends).
Columns and labels:
[1] = tested on: patients with chronic idiopathic constipation (CIC); test: Clinical study in CIC patients: pharmacodynamic effects (efficacy), bowel habits; format: in vivo, Humans; conditions: for time to first bowel movement: after daily dose
Method: (§1) A randomized, double-blind, placebo-controlled, 14-day repeat oral, dose ranging study was conducted in patients with chronic idiopathic constipation (CIC). […] One secondary objective was to assess the pharmacokinetic profile of SP-304 in plasma.
(§2) Subjects diagnosed with CIC were screened for the anticipated 4 cohorts to yield 80 randomized subjects for enrollment. […] Subjects who continued to meet all the entry criteria and complete the pre-treatment bowel movement (BM) diary received, in a double-blind, randomized fashion, SP-304 or matching placebo. The entry criteria included (1) meeting modified ROME III criteria for chronic constipation (CC); (2) no significant finding in colonoscopy within past 5 years; (3) good health as determined by physical examination, medical history, vital signs, ECG, clinical chemistry, hematology, urinalysis, drug screen and serology assessments; and (4) during 14-day pre-treatment period, subjects reporting <6 SBM and <3 CSBM in each pre-treatment week.

[2] = Excipient compatibility: percent purity (HPLC) of SP-304 in binary mixtures stored at 40 C/75RH; format: physicochemical
Text: For solid excipients the binary mixtures were comprised of 9.1% or 50% excipient. Glass vials were stored at 40 C/75RH open or closed.

[3] = Clinical study in CIC patients: pharmacokinetic profile of SP-304 in plasma; format: in vivo, Humans; conditions: oral, 14 days, assay sensitivity ≥10 ng/mL
Method: as §1, §2
(§3) The majority of adverse events were mild/moderate and transient in nature. […] The table below is a GI-related adverse event (AE) summary.

[4] = tested on: patients with chronic idiopathic constipation (CIC); format: in vivo
Method: as §1, §2, §3

[5] = daily treatment 14 days, CIC patients
[6] = 14-day repeat oral dosing, CIC patients

With `CC(C)C[C@H](NC(=O)[C@@H]1CSSC[C@@H]2NC(=O)[C@H](CC(C)C)NC(=O)[C@H](CCC(=O)O)NC(=O)[C@@H](NC(=O)[C@H](CCC(=O)O)NC(=O)[C@H](CC(=O)O)NC(=O)[C@@H](N)CC(N)=O)CSSC[C@H](NC(=O)[C@H](C)NC(=O)[C@H](C(C)C)NC(=O)[C@H](CC(N)=O)NC(=O)[C@H](C(C)C)NC2=O)C(=O)N[C@@H]([C@@H](C)O)C(=O)NCC(=O)N1)C(=O)O` [SP-304, Asn^1-Asp^2-Glu^3-Cys^4-Glu^5-Leu^6-Cys^7-Val^8-Asn^9-Val^10-Ala^11-Cys^12-Thr^13-Gly^14-Cys^15-Leu^16] (H-NDECELCVNVACTGCL-OH; disulfide 4-12, 7-15) the stool consistency ([1]; Bristol Stool Form Scale, daily treatment 14 days) was “improved”, the “time to first bowel movement” value ([1]; CIC patients) was “decreased” and the “time to first bowel movement” value ([1]; CIC patients, listed as Plecanatide) was “reduced”. For the same molecule, the abdominal discomfort [1, 5] was “reduced”, the “stool frequency (CSBM)” value [1, 5] was “increased” and the “stool frequency (SBM)” value [1, 5] was “increased”. For the same molecule, the straining [1, 5] was “reduced”, the “percent purity of SP-304 (HPLC), Closed 1 M” value ([2]; closed glass vial, 1 month) was 91.4% and the “percent purity of SP-304 (HPLC), Closed 2 M” value ([2]; closed glass vial, 2 months) was 88.2%. For the same molecule, the “percent purity of SP-304 (HPLC), Open 0.5 M” value ([2]; open glass vial, 0.5 month) was 93.7%, the “percent purity of SP-304 (HPLC), Open 1 M” value ([2]; open glass vial, 1 month) was 91.2% and the “percent purity of SP-304 (HPLC), Open 2 M” value ([2]; open glass vial, 2 months) was 88.2%. For the same molecule, the “percent purity of SP-304 (HPLC), Open 3 M” value ([2]; open glass vial, 3 months) was 84.8%, the “systemic absorption of plecanatide” value [3] was “no detectable systemic absorption” and the deaths [4, 6] was “no deaths reported”. The “serious adverse events (SAE)” value [4, 6] was “No serious adverse events”, the diarrhea ([4]; human, in vivo) was “no diarrhea reported” and the “subjects reporting GI-related adverse events considered as related to treatment” value ([4]; human, in vivo) was 5.2%. The “subjects reporting adverse events considered as related to the treatment” value ([4]; human, in vivo) was 17.2%.

Source: patent publication US9925231B2, “Formulations of guanylate cyclase C agonists and methods of use” (SYNERGY PHARMACEUTICALS, INC., priority 2010, dated 2018)
